Test results from patent US8575146B2, “Pharmaceutical uses of staurosporine derivatives” (Novartis AG, priority 2003, dated 2013).

Experiments:
[1] = test system: systemic mastocytosis with D816V KIT mutation; assay: Case of a patient with systemic mastocytosis / mast cell leukemia treated with PKC412; type: in vivo, human
Description: They were supported with red blood cell and platelet transfusions, antihistamine blockade, and cromolyn sodium.

[2] = target: T1, constitutively activated mutant canine KIT in BR and C2 cells (Canis lupus familiaris, UniProt O97799, L579P); assay: KIT autophosphorylation in BR and C2 canine mastocytoma cell lysates (anti-P-Tyr Western immunoblot); type: cell-based
T1 construct: Lysates prepared from BR or C2 cells are probed with an anti-P-Tyr antibody; endogenous in cells; host or cells: BR canine mastocytoma cell line
Description: (§1) The C2 cell line has an internal tandem duplication (ITD) of the KIT juxtamembrane region.

[3] = test system: BR and C2 canine mastocytoma cells; assay: XTT-based proliferation assay of canine mast cell tumor cell lines; details: 0.1-10 μM; 48-72 hours; BR or C2 cells
Description: as §1

T1 sequence (O97799 28-979 L579P): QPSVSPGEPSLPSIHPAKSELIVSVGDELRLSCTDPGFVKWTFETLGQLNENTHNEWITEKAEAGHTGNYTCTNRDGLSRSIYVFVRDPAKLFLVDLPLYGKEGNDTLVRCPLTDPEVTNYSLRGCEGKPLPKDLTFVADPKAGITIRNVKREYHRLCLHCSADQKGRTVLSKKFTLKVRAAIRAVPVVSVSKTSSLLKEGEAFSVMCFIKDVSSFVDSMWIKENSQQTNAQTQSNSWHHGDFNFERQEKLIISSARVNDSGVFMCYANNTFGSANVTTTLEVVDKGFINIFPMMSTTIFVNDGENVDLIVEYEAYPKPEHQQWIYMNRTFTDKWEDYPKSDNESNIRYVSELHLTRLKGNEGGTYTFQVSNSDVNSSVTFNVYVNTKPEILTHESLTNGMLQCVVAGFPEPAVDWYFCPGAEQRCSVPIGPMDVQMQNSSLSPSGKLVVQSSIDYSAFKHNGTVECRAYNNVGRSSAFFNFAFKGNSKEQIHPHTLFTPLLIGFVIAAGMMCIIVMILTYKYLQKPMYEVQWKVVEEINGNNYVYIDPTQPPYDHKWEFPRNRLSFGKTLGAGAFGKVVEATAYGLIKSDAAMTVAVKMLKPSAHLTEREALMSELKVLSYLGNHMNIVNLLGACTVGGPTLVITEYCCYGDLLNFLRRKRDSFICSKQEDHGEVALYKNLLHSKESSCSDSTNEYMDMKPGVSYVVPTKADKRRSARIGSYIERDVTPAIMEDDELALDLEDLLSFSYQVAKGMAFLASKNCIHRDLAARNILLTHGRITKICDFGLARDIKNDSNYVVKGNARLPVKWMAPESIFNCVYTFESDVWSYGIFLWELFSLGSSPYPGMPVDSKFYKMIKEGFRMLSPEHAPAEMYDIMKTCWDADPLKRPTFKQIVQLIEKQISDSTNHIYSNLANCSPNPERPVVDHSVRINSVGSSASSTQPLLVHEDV

CO[C@@H]1[C@H](N(C)C(=O)c2ccccc2)C[C@H]2O[C@]1(C)n1c3ccccc3c3c4c(c5c6ccccc6n2c5c31)C(=O)NC4 [PKC412, N-[(9S, 10R,11R,13R)-2,3,10,11,12,13-hexahydro-10-methoxy-9-methyl-1-oxo-9,13-epoxy-1H,9H-diindolo[1,2,3-gh:3′,2′,1′-lm]pyrrolo[3,4j][1,7]benzodiazonin-11-yl]-N-methylbenzamide]
tolerability / adverse events ([1]; 100 mg twice daily orally, later 75 mg po tid): well tolerated without any significant adverse events
day on which patient expired ([1]; PKC412 stopped on day #102): 111 days
serum histamine level ([1]; after 1 month (about day 32)): 1031 ng/dL
Transient platelet-transfusion independence, duration ([1]; cycle 2): 2-3 weeks
platelets ([1]; cycle 2, during transient platelet-transfusion independence): 20,000-25,000 /mm3
Serum histamine ([1]; cycle 3): 2525 ng/dL
bilirubin (total) ([1]; cycle 3, when PKC412 stopped on day #102): 14 mg/dL
circulating mast cells ([1]; day 32 of treatment): < 5%
white blood cell count ([1]; day 32 of treatment): normal
Bone marrow clusters of mast cells by IPOX ([1]; end of cycle 1): no changes
Bone marrow blasts ([1]; end of cycle 1 / after 1 month, 5-10% at presentation): < 5%
Karnofsky performance status ([1]; end of cycle 1 / after 1 month, from 20% before therapy): 70%
Response (criteria of Valent et al) ([1]; end of cycle 1, 100 mg twice daily orally, 28-day cycles): Partial Response
direct bilirubin ([1]; end of cycle 1, from 2.8): 1.1 mg/dL
total bilirubin ([1]; end of cycle 1, from 4.8): 2.1 mg/dL
Peripheral blood mast cell numbers ([1]; end of cycle 1, from 40-50%): < 10%
LDH ([1]; end of cycle 1, from 769): 239 IU/L
Serum histamine ([1]; end of cycle 1, from 7000, normal <100): 1000 ng/dL
Bone marrow blasts ([1]; end of cycle 2): 10-15%
Bone marrow mast cell clusters ([1]; end of cycle 2): no significant change
Peripheral blood mast cell numbers ([1]; end of cycle 2): < 10%
Response ([1]; end of cycle 2): Maintenance of Partial Response
Serum histamine ([1]; end of cycle 2): 800 to 1200 ng/dL
serum tryptase ([1]; end of cycle 2): > 200 µg/L
direct bilirubin ([1]; end of cycle 2, from 1.1): 0.7 mg/dL
total bilirubin ([1]; end of cycle 2, from 2.1): 1.3 mg/dL
Response ([1]; end of cycle 3, dose increased to 75 mg po tid on day #91): Disease Progression
Inhibition of KIT autophosphorylation ([2]; 0.1 μM dose, BR or C2 cells, 90 minutes): Near complete inhibition
autophosphorylation of c-kit ([2]; 0.001-0.01 μM doses, BR or C2 cells, 90 minutes): Limited autophosphorylation
Inhibition of KIT autophosphorylation ([2]; 10 and 1.0 μM doses, BR or C2 cells, 90 minutes): complete inhibition
expression of c-kit protein (membrane reprobed with anti-c-kit antibody) ([2]; PKC412 treated BR or C2 cells): no change
proliferation decreased compared to cells treated with media only [3]: 90-95%
